Measured values published in ChEMBL document CHEMBL4433219, “EC18 as a Tool To Understand the Role of HCN4 Channels in Mediating Hyperpolarization-Activated Current in Tissues” (ACS Med Chem Lett, 2019).
Calls of active or inactive are those of the source. No cut-off for these calls is given here.

Columns and labels:
[1] = system: Cardiac muscle of left ventricle; assay: (§1) Effect on cardiac electrophysiological profile in Mongrel perfused dog heart left ventricular muscle stimulated at basic cycle length of 1000 milliseconds assessed as action potential time duration at 75% of repolarization at 1 uM measured after 25 mins by glass capillary microelectrode based electrophysiology assay (reference value: 199.7 +/- 16.87 milliseconds); format: functional, Canis lupus familiaris
[2] = system: Cardiac muscle of left ventricle; assay: as §1, with “50%” for “75%”, “176” for “199.7”, “16.36” for “16.87”; format: functional, Canis lupus familiaris
[3] = target: T1, Potassium/sodium hyperpolarization-activated cyclic nucleotide-gated channel 4 (Homo sapiens) (UniProt Q9Y3Q4); assay: Inhibition of human HCN4 expressed in HEK293 cells assessed as reduction in hyperpolarization activated current at 5 uM at holding potential of -80 mV by patch clamp assay relative to control; format: cell-based
T1 sequence (whole entry): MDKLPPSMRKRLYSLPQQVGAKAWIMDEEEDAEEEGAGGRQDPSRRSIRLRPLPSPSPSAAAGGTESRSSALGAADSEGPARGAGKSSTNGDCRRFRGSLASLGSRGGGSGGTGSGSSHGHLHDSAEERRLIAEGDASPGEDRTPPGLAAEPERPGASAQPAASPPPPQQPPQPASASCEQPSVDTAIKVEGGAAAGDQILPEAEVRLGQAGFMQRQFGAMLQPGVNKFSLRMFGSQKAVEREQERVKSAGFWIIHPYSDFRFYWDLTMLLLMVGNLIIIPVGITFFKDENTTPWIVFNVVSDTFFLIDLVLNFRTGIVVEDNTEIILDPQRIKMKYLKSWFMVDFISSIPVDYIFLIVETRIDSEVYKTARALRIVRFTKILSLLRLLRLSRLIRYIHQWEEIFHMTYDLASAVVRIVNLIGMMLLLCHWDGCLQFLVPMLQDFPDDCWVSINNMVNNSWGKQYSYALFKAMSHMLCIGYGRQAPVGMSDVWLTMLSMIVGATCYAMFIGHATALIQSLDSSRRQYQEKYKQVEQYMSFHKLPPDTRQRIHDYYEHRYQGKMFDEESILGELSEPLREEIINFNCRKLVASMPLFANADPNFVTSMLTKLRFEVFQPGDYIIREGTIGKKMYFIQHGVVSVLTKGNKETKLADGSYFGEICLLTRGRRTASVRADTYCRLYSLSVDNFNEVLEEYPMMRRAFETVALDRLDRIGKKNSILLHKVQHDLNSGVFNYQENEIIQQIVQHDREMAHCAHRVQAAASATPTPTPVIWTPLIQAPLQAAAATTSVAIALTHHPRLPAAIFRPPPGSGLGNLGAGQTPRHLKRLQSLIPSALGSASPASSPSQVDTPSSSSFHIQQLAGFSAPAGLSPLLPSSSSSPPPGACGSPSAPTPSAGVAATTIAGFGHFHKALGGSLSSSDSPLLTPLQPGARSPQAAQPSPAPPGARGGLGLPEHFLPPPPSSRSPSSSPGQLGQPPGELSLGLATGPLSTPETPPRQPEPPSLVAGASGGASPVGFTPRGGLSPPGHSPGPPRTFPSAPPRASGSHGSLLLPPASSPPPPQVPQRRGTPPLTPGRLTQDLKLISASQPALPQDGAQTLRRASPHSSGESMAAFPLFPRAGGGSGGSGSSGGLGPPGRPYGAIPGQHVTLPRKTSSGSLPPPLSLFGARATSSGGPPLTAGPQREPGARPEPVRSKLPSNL

[4] = system: Cardiac muscle of left ventricle; assay: as §1, with “conduction” for “action potential”, “time” for “time duration”, “10” for “75% of repolarization at 1”, “4.8” for “199.7”, “0.60” for “16.87”; format: functional, Canis lupus familiaris
[5] = target: T2, Potassium/sodium hyperpolarization-activated cyclic nucleotide-gated channel 2 (Mus musculus, UniProt O88703); assay: Inhibition of mouse HCN2 expressed in HEK293 cells assessed as reduction in hyperpolarization activated current at holding potential of -80 mV by patch clamp assay; format: cell-based
T2 sequence (O88703 whole entry): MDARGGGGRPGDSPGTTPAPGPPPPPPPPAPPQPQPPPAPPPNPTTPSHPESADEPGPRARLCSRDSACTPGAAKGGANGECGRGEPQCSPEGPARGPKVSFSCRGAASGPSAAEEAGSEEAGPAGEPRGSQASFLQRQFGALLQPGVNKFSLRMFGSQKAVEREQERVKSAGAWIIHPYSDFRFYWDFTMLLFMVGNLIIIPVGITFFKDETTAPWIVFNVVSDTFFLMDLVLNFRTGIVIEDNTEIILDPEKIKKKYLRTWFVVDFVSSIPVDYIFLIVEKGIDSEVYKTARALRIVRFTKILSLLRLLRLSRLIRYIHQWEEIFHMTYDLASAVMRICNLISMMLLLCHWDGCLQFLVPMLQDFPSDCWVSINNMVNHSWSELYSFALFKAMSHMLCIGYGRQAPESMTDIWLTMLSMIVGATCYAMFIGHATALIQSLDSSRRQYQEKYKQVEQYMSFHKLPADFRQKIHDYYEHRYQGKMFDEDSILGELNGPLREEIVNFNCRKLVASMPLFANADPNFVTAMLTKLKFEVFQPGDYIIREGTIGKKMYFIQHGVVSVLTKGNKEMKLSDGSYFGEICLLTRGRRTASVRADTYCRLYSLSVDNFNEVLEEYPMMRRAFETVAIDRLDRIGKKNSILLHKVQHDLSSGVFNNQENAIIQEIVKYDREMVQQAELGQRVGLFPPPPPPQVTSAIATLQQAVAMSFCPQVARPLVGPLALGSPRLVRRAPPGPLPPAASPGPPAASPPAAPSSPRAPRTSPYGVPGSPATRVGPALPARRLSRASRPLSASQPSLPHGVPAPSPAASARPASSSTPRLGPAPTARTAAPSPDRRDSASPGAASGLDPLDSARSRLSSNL

[6] = system: Cardiac muscle of left ventricle; assay: as §1, with “90%” for “75%”, “212.5” for “199.7”, “16.25” for “16.87”; format: functional, Canis lupus familiaris
[7] = species: Mus musculus; assay: Effect on transient A type potassium channel in C57BL/6J mouse thalamocortical relay neuron assessed as effect on early transient current at 10 uM by whole cell patch clamp assay relative to control

## COc1ccc(CCN(C)[C@@H]2CCC[C@H](N3CCc4cc(OC)c(OC)cc4CC3=O)C2)cc1OC (racemic)
[1]
  Time: 191.9 ms
[2]
  Time: 168.3 ms
[3]
  inhibition: 59%
[4]
  Time: 5 ms
[5]
  EC50: 19.3 µM
[6]
  Time: 204.9 ms
[7]
  Activity: inactive
